We go through twelve compounds from patent US4874869A, “Hydantoin derivatives and medicines containing the same” (Eisai Co., Ltd., priority 1980, dated 1989).

The subject of assay [1] is sorbitol accumulation in the lens and the sciatic nerve. The assay can be described thus: Reduction or inhibition of sorbitol accumulation in the lens and the sciatic nerve of streptozotocin-induced diabetic rats. In kind it is in vivo, rat. As to conditions: for Inhibition of sorbitol accumulation: vs no compound; for higher activities such as the inhibition of sorbitol accumulation, predominant diastereomer compared with the other isomer: predominant vs minor diastereomer; for superior effect on the inhibition of sorbitol accumulation in comparison with the control compound: vs control compound, Table 1. Here is the method: The compounds listed in Tables 1 and 2 were tested for the ability to reduce or inhibit the accumulation of sorbitol in the lens and the sciatic nerve of streptozotocin-induced diabetic rats by the method of M. J. Peterson et al., [Metabolism, Vol. 28, No. 4, Supply. 1 (April), 456-461 (1979)]. […] In this experiment, the amount of sorbitol accumulation in the lens and the sciatic nerve of the rat was measured 28 hours after induction of diabetes.
The compounds listed in Tables 1 and 2 were orally administered at, the dose levels indicated in the Tables, 4, 8 and 25 hours after the administration of the streptozotocin.

The target in another assay is T1, aldose reductase (Bos taurus, UniProt P16116).
T1 construct: Aldose reductase was prepared by the method of Hayman et al; from tissue
Nature of the assay: Inhibition effect on aldose reductase. The following applies: for activity of the d-type relative to the dl-type product: aldose reductase. In kind it is biochemical. The procedure:
Aldose reductase was prepared by the method of Hayman et al. [S. Hayman and K.K. Kinoshita; Journal of Biological Chemistry, Vol. 240, p.

The subject of assay [2] is cataract formation in galactosemic rats. The assay can be described thus: Effect on cataract formation in galactosemic rats (visual observation of lenticular opacities). As to conditions: for lenticular opacities, number with grade ++ / lenticular opacities, number with grade +++: 1 mg/kg oral once a day; for lenticular opacities, number with grade ++ / lenticular opacities, number with grade +++ / lenticular opacities, number with grade + / lenticular opacities, number with grade - (no opacity): 16th day, total 6. It is filed as in vivo, male Sprague-Dawley rats. Here is the method: (§1) On the 16th day of the study (24 hours after the final administration) lenticular opacities were observed, and then the lens and the sciatic nerve were enucleated to determine the content of carbohydrates.
The abscissa in FIG. 1 indicates the number of days from the beginning of feeding of a 30% galactose diet, and the ordinate indicates the percentages of appearance of the cataract.
In Table 3, a symbol - represents the case of no opacity and +, ++, +++ show the grade of the opacity, respectively.

For assay [3], the system named is galactitol accumulation in the lens and the sciatic nerve. The assay can be described thus: Inhibition of galactitol accumulation in the lens and the sciatic nerve of galactosemic rats. As to conditions: 16th day. In kind it is in vivo, male Sprague-Dawley rats. The procedure:
as §1

Setting [4] is: lens, 10 mg/kg oral, 4, 8 and 25 h after streptozotocin.
Where [5] appears, read: sciatic nerve, 10 mg/kg oral, 4, 8 and 25 h after streptozotocin.
The mark [6] stands for this setting: Table 5, read-out: ID50 (concentration of 50% inhibition on aldose reductase).
[7] abbreviates: similar manner as in Experiment 3, d-type vs dl-type product, read-out: ID50, inhibition effect on the Aldose reductase.
Where [8] appears, read: lens, 5 mg/kg oral, 4, 8 and 25 h after streptozotocin.
[9] abbreviates: sciatic nerve, 5 mg/kg oral, 4, 8 and 25 h after streptozotocin.
Setting [10] is: lens, 0.2 mg/kg oral, 4, 8 and 25 h after streptozotocin.
Setting [11] is: lens, 1 mg/kg oral, 4, 8 and 25 h after streptozotocin.
Setting [12] is: sciatic nerve, 0.2 mg/kg oral, 4, 8 and 25 h after streptozotocin.
Where [13] appears, read: sciatic nerve, 1 mg/kg oral, 4, 8 and 25 h after streptozotocin.

Read-outs that look alike come from different tables or passages of the source.

In the case of `CC1(C)CC2(NC(=O)NC2=O)c2cc(Cl)cc(Cl)c2O1` (stereo not shown) [6,8-Dichloro-2,2-dimethyl-spiro-[chroman-4,4'-imidazolidine]-2',5'-dione], the “Inhibition of sorbitol accumulation” value in assay [1] (setting [4]) is recorded as 87%; in assay [1] (setting [5]) it was 55%.
As to `CC1CC2(NC(=O)NC2=O)c2cc(Cl)ccc2O1` (stereo not shown) [6-Chloro-2-methyl-spiro-[chroman-4,4'-imidazolidine]-2',5'-dione], the “Inhibition on aldose reductase” value at aldose reductase (3 × 10^-6 (M)) came out at 92%; at aldose reductase (3 × 10^-7 (M)), 31%; on aldose reductase (10^-6 (M)), 84%; on aldose reductase (10^-7 (M)) it was 0%. For the same compound, the IC50 on aldose reductase (setting [6]) was determined as 400 nM; on aldose reductase (setting [7]), 77 nM. In addition, the “Inhibition of sorbitol accumulation” value in assay [1] (setting [4]) is listed as 97%; in assay [1] (setting [5]) it was 82%. The “higher activities such as the inhibition of sorbitol accumulation, predominant diastereomer compared with the other isomer” value in assay [1] is on record as 3-5 times. Further, the “superior effect on the inhibition of sorbitol accumulation in comparison with the control compound” value in assay [1] is 2-10 times.
Consider `CC1CC2(NC(=O)NC2=O)c2cc(Cl)c(Cl)cc2O1` (stereo not shown) [6,7-Dichloro-2-methyl-spiro-[chroman-4,4'-imidazolidine]-2',5'-dione], for which the “Inhibition of sorbitol accumulation” value in assay [1] (setting [8]) was determined as 88%.
As for `CC1CC2(NC(=O)NC2=O)c2ccccc2O1` (stereo not shown) [2-Methyl-spiro-[chroman-4,4'-imidazolidine]-2',5'-dione], the “Inhibition of sorbitol accumulation” value is recorded as 54% in assay [1] (setting [8]) and 77% in assay [1] (setting [9]).
With `CC1Oc2ccc(Cl)cc2C12NC(=O)NC2=O` (stereo not shown) [5-Chloro-2-methyl-spiro-[benzofuran-3,4'-imidazolidine]-2',5'-dione], the “Inhibition of sorbitol accumulation” value in assay [1] (setting [4]) was 95%; in assay [1] (setting [5]), 45%.
`CC1CC2(NC(=O)NC2=O)c2cc(F)ccc2O1` (stereo not shown) [6-Fluoro-2-methyl-spiro-[chroman-4,4'-imidazolidine]-2',5'-dione]: the “Inhibition on aldose reductase” value on aldose reductase (3 × 10^-6 (M)) is 91%; at aldose reductase (3 × 10^-7 (M)), 31%; at aldose reductase (10^-6 (M)), 77%; on aldose reductase (10^-7 (M)), 7%. Also, the IC50 worked out at 500 nM at aldose reductase (setting [6]) and 180 nM at aldose reductase (setting [7]). In addition, the “Inhibition of sorbitol accumulation” value in assay [1] (setting [10]) is 43%; in assay [1] (setting [11]), 80%; in assay [1] (setting [8]) it was 93%; in assay [1] (setting [4]), 96%; in assay [1] (setting [12]), 39%; in assay [1] (setting [13]), 100%. Further, the “Inhibition of sorbitol accumulation” value in assay [1] (setting [9]) and in assay [1] (setting [5]) was 100% in each case. Also, the “higher activities such as the inhibition of sorbitol accumulation, predominant diastereomer compared with the other isomer” value in assay [1] is reported as 3-5 times. In addition, in assay [1], the “superior effect on the inhibition of sorbitol accumulation in comparison with the control compound” value is reported as 2-10 times.
As to `CC1CC2(NC(=O)NC2=O)c2cc(F)ccc2O1` (stereo not drawn) [d-6-fluoro-2-methyl-spiro-[chromane-4,4'-imidazolidine]-2',5'-dione], the “activity of the d-type relative to the dl-type product” value at aldose reductase (d-type vs dl-type product) is listed as “about twice”. Moreover, the IC50 on aldose reductase (setting [7]) came to 93 nM.
The like results for `CC1CC2(NC(=O)NC2=O)c2cc(Cl)ccc2O1` (stereo not drawn) [d-6-chloro-2-methyl-spiro-[chromane-4,4'-imidazolidine]-2',5'-dione] were, in that order, “about twice” and 43 nM.
With `CC1(C)CC2(NC(=O)NC2=O)c2cc(Br)ccc2O1` (stereo not shown) [6-Bromo-2,2-dimethyl-spiro-[chroman-4,4'-imidazolidine]-2',5'-dione], the “Inhibition of sorbitol accumulation” value in assay [1] (setting [4]) is listed as 88%; in assay [1] (setting [5]) it was 100%.
For `O=C1NC(=O)C2(CCOc3ccc(F)cc32)N1` (stereo not shown) [6-fluoro-spiro-[chroman-4,4'-imidazolidine]-2',5'-dione, reference compound], the “Inhibition on aldose reductase” value was determined as 78% at aldose reductase (3 × 10^-6 (M)), 17% at aldose reductase (3 × 10^-7 (M)), 53% at aldose reductase (10^-6 (M)) and 2% on aldose reductase (10^-7 (M)). Besides, the “lenticular opacities on the 16th day (in words)” value in assay [2] (25 mg/kg oral once a day) is on record as “lenticular opacities were not observed”. Also, the “lenticular opacities, number with grade ++” value in assay [2] (left) turned out to be 3; in assay [2] (right), 2. Further, the “lenticular opacities, number with grade +++” value in assay [2] (left) turned out to be 3; in assay [2] (right) it was 4. Besides, the “lenticular opacities, number with grade +” value worked out at 4 in assay [2] (left, 5 mg/kg oral once a day) and 4 in assay [2] (right, 5 mg/kg oral once a day). In addition, the “lenticular opacities, number with grade - (no opacity)” value in assay [2] (left, 5 mg/kg oral once a day) is 2; in assay [2] (left, 25 mg/kg oral once a day) it was 6; in assay [2] (right, 5 mg/kg oral once a day) it was 2; in assay [2] (right, 25 mg/kg oral once a day), 6. The “Inhibition of galactitol accumulation” value in assay [3] (lens, 1 mg/kg oral once a day) was -11%; in assay [3] (lens, 5 mg/kg oral once a day), 5%; in assay [3] (lens, 25 mg/kg oral once a day), 22%; in assay [3] (sciatic nerve, 1 mg/kg oral once a day) it was 1%; in assay [3] (sciatic nerve, 5 mg/kg oral once a day), -12%; in assay [3] (sciatic nerve, 25 mg/kg oral once a day), 17%. Also, the “Inhibition of sorbitol accumulation” value in assay [1] (setting [10]) was -29%; in assay [1] (setting [11]) it was 41%; in assay [1] (setting [8]), 62%; in assay [1] (setting [4]), 77%; in assay [1] (setting [12]), 26%; in assay [1] (setting [13]), 15%. Besides, the entries for the “Inhibition of sorbitol accumulation” value in assay [1] (setting [9]) and in assay [1] (setting [5]) were 67% and 88%, respectively.
With `CC1(C)CC2(NC(=O)NC2=O)c2cc(F)ccc2O1` (stereo not shown) [6-Fluoro-2,2-dimethyl-spiro-[chroman-4,4'-imidazolidine]-2',5'-dione], the “Inhibition on aldose reductase” value on aldose reductase (3 × 10^-6 (M)) is 70%; on aldose reductase (3 × 10^-7 (M)), 12%; on aldose reductase (10^-6 (M)), 40%; at aldose reductase (10^-7 (M)) it was 0%. For the same compound, at aldose reductase (setting [6]), the IC50 came to 2000 nM. Moreover, the “Inhibition of sorbitol accumulation” value in assay [1] (setting [10]) is given as 35%; in assay [1] (setting [11]), 58%; in assay [1] (setting [8]), 72%; in assay [1] (setting [4]), 81%; in assay [1] (setting [12]), 22%; in assay [1] (setting [13]), 33%. The “Inhibition of sorbitol accumulation” value is on record as 81% in assay [1] (setting [9]) and 93% in assay [1] (setting [5]).
Take `CC1CC2(NC(=O)NC2=O)c2ccc(Cl)cc2O1` (stereo not shown) [7-Chloro-2-methyl-spiro-[chroman-4,4'-imidazolidine]-2',5'-dione]: the “Inhibition of sorbitol accumulation” value in assay [1] (setting [8]) amounted to 83%.
